Where “and” joins values, the source holds several entries; their conditions need not be identical. Equal values may be shown once.
How the values were obtained:
[1] = cited from earlier work
[2] = test system: SOD1^G93A‐expressing PC12 cell; details: in vitro potency; read-out: EC50 (protein aggregation/toxicity); cited from earlier work
cortical neurons = test system: cortical neurons; design: method as in earlier work; details: ref 53 (compound 2), ref 54 (NU‐9); cited from earlier work
[3] = design: method as in PMID 22189273, PMID 22837812; details: cited from earlier work
[4] = test system: prpTDP‐43^A315T‐UeGFP mice; test: Hanging wire test (max 60 s), prpTDP‐43^A315T‐UeGFP mice; assay type: in vivo; details: for wire hanging, Predicted (LS) mean: prpTDP-43A315T-UeGFP (NU-9 100 mg/kg/day); for wire hanging, Average: prpTDP-43A315T-UeGFP, NU-9 100 mg/kg/day po
Experimental: (§1) hSOD1^G93A‐UeGFP, prpTDP‐43^A315T‐UeGFP and WT‐UeGFP mice were weighed and the required NU‐9 dose per weight was calculated (20 or 100 mg/kg), which was administered once daily by oral gavage, starting at postnatal day (P)60 and continuing until P120. Animals from the untreated group received the vehicle (NMP and olive oil) only. For oral administration purposes, 20 ga × 38 mm plastic feeding tubes were used (Instech Laboratories, Inc). The gavage tip was inserted into the mouth directly over the tongue and into the pharynx. While observing the swallowing reflex, the tip was safely and smoothly slid into the esophagus. Once the administration was completed, the gavage tip was pulled straight out.
Behavior data were collected from hSOD1^G93A‐UeGFP and WT‐UeGFP mice (starting at P60 and every 7 days until P116) and from prpTDP‐43^A315T‐UeGFP mice (at P60, P90, and P120) with the following number of mice for each group: WT‐UeGFP vehicle (n = 10), hSOD1^G93A‐UeGFP vehicle (n = 6), WT‐UeGFP 20 mg/kg/day NU‐9 (n = 5), hSOD1^G93A‐UeGFP 20 mg/kg/day NU‐9 (n = 7), WT‐UeGFP 100 mg/kg/day NU‐9 (n = 11), hSOD1^G93A‐UeGFP 100 mg/kg/day NU‐9 (n = 9), prpTDP‐43^A315T‐UeGFP untreated (n ≥ 3), and prpTDP‐43^A315T‐UeGFP 100 mg/kg/day NU‐9 (n = 4) (Table S3).
Mice were placed on a wire mesh, which was then inverted and suspended above the home cage; the time when the animal fell was recorded. This test was performed three times for a maximum of 60 s each session, with a 1‐min rest period between each trial. The average performance for each session is presented as the average of the three trials.

[5] = test system: UMNs of hSOD1^G93A‐UeGFP mice; test: EM quantification of mitochondria and ER in UMNs, hSOD1^G93A‐UeGFP mice; assay type: in vivo
Experimental: as §1
Mice were perfused with EM grade 4% PFA. One hemisphere of the brain was sectioned at 50 µm thickness coronally on a vibratome (Leica VT1000S, Leica Inc., Nussloch, Germany). The sections were postfixed in 2% PFA and 0.5% glutaraldehyde for 1 h, they were cryoprotected with glycerol–dimethylsulfoxide (DMSO) mixture followed by freeze–thaw at least four times, and treated with 1% sodium borohydride. They were then treated with 0.3% H2O2–10% methanol in TBS (100 mM Tris–HCl and 150 mM NaCl, pH 7.6) and 5% normal goat serum–1% bovine serum albumin in TBS to block nonspecific binding of primary antibody. This mixture was incubated overnight with rat anti‐Ctip2 antibody (1:500, Thermo Fisher Scientific, Rockford, IL, USA). Biotinylated goat anti‐rat IgG (1:500, Vector Laboratories, Burlingame, CA, USA) was used as the secondary antibody, and diaminobenzidine (DAB) was applied as the chromogen (ABC Elite kit, Vector Laboratories, Burlingame, CA, USA). Sections were then postfixed in buffered 2% osmium tetroxide (OsO4) (Electron Microscopy Sciences, Hatfield, PA, USA), rinsed with distilled water, and stained in 1% uranyl acetate (Electron Microscopy Sciences, Hatfield, PA, USA), again rinsed with distilled water, dehydrated in ascending grades of ethanol with transition fluid propylene oxide (Electron Microscopy Sciences, Hatfield, PA, USA), embedded in the resin mixture with Embed 812 (Electron Microscopy Sciences, Hatfield, PA, USA), and cured in a 60°C oven for 3 days. The sections in which primary motor cortex was present and visible under bright‐field illumination on a dissecting scope were selected. Approximately, 5‐mm‐wide × 7‐mm‐long pieces of the motor cortex from these sections were dissected under the microscope mounted on a resin block and were sectioned on a Leica Ultracut UC6 ultramicrotome (Leica Inc., Nussloch, Germany). The motor cortex was further trimmed, and only layer 5 was kept intact for preparing ultrathin sections. UMNs were identified based on the presence of Ctip2 immunohistochemistry (DAB) in their nuclei (Figure S1). Seventy‐nanometer‐thin sections were collected on 200‐mesh copper–palladium grids. Grids were counterstained with 8% radioactive depleted uranyl acetate and 0.2% lead citrate. Grids were examined on FEI Tecnai Spirit G2 TEM (FEI company, Hillsboro, OR, USA), and digital images were captured on a FEI Eagle camera.
EM images of Betz cells of normal control and patients, Ctip2‐positive (Ctip2^+) UMN of WT, and hSOD1^G93A‐UeGFP and prpTDP‐43^A315T‐UeGFP mice (Figure S1) were acquired from 70‐nm ultrathin sections of the motor cortex, and EM images were taken on FEI Tecnai Spirit G2 TEM using FEI Eagle camera. Mitochondria were quantified, as described previously. ^34 Mitochondria with intact outer and inner membrane and with intact cristae were considered healthy. Mitochondria with morphological defects, such as broken outer and/or inner membrane and cristae, were counted individually and were reported as percentage of defective mitochondria. ER that are disintegrated and that display profound expansion were considered unhealthy. Length of ER cisternae was measured using line tool of ImageJ software (NIH) upon calibration for pixels/micrometer using set scale function. […]

Caco‐2 = test system: Caco‐2; design: method as in PMID 22189273, PMID 22837812; details: cited from earlier work
[6] = hSOD1G93A-UeGFP (NU-9 100 mg/kg/day)
[7] = hSOD1^G93A‐UeGFP mice, 100 mg/kg/day oral gavage P60–P120, at P120

## C[C@H](Oc1cc(C(F)(F)F)cc(C(F)(F)F)c1)C1CC(=O)CC(=O)C1 [NU‐9]
[1]
  Brain penetration: 8 µM and 8.3 µM
  blood brain barrier crossing: crossed the blood brain barrier
[1]; in vivo, mice
  t 1/2: 2.7 h and 2.73 h
[1]; ip, mice, dose 500 mg/kg
  Blood levels (t max): 12 h (500 mg/kg)
[1]; mice
  Oral bioavailability: 94%
[1]; mouse
  CL (mouse): 44 mL/min/kg
[1]; po
  AUC: 3452 h‐ng/ml po
[2]
  EC50: 300 nM
Cortical neurons
  penetration into neurons: penetrated cortical neurons
[3]
  PAMPA‐BBB P e: 8.11 × 10^–6 cm/s
  PAMPA‐BBB classification: CNS+
[4]; P60, mixed-effects analysis
  wire hanging, Predicted (LS) mean: 56.83
[4]; P90, mixed-effects analysis
  wire hanging, Predicted (LS) mean: 57.17
[4]; P120, mixed-effects analysis
  wire hanging, Predicted (LS) mean: 59.67
[4]; P60
  wire hanging, Average: 55.7778
[4]; P90
  wire hanging, Average: 56.2222
[4]; P120
  wire hanging, Average: 59.5556
[4]; prpTDP‐43^A315T mice, 100 mg/kg/day, P120
  hanging wire test, latency to fall: 59.5 ± 0.3 s
[5]; [6]
  Fig. 2O group mean (total number of mitochondria/UMN): 21.13
  Fig. 2P group mean (percentage of healthy mitochondria/UMN): 86.3
  Fig. 2R group mean (average length of ER cisternae/UMN): 1.136
[5]; [7]
  average length of ER cisternae: 1.13 ± 0.1 µm
  number of healthy ER cisternae: 14 ± 2 ER cisternae/UMN/section
  percentage of healthy mitochondria in UMNs: 86% ± 3%
  total number of mitochondria in UMNs: 21 ± 2 mitochondria/UMN/section
Caco‐2
  Caco‐2 A→B: 24.1 × 10^–6 cm/s
  Caco‐2 B→A: 1.5 × 10^–6 cm/s
  Caco‐2 Efflux ratio: 0.06

Source: article PMC7898037, “Improving mitochondria and ER stability helps eliminate upper motor neuron degeneration that occurs due to mSOD1 toxicity and TDP‐43 pathology” (Clinical and Translational Medicine, 2021)
